Measured values: ChEMBL document CHEMBL1150165, “Antineoplastic agents. 489. Isolation and structures of meliastatins 1-5 and related euphane triterpenes from the tree Melia dubia” (2002)
Converted amounts (≈) assume the structure as drawn.

What was measured:
Format in all cases: functional
P388 = assay: Growth inhibition of mouse P388 cells; details: read-out: ED50 (the source's name)
MCF7 = assay: Growth inhibition of human MCF7 cells
SF-268 = assay: Growth inhibition of human SF268 cells
KM-20L2 = assay: Growth inhibition of human KM20L2 cells
NCI-H460 = assay: Growth inhibition of human NCI-H460 cells
BXPC-3 = assay: Growth inhibition of human BxPC3 cells
DU-145 = assay: Growth inhibition of human DU145 cells

`CC(C)=CCC[C@@H](C)[C@@H]1[C@@H](O)C[C@]2(C)C3=CC[C@H]4C(C)(C)[C@@H](O)CC[C@]4(C)[C@H]3CC[C@@]12C` gave an EC50 (P388) of 2.5 µg/mL (≈ 5.65 µM).

In the case of `C=C(C)[C@@H]1CCC([C@@H]2[C@@H](O)C[C@]3(C)C4=CC[C@H]5C(C)(C)C(=O)CC[C@]5(C)[C@H]4CC[C@@]23C)C(=O)O1` (stereo not given in full) [DUBIONE B], the EC50 (P388) was 20.5 µg/mL (≈ 43.7 µM).

With `O=c1[nH]cc(F)c(=O)[nH]1` [FLUOROURACIL] the EC50 (P388) was 0.075 µg/mL (≈ 0.577 µM).

For `CC(C)=CCC[C@H]1C(=O)O[C@H]2C[C@]3(C)C4=CC[C@H]5C(C)(C)C(=O)CC[C@]5(C)[C@H]4CC[C@@]3(C)[C@@H]21` [KULACTONE], the EC50 (P388) was 6.2 µg/mL (≈ 13.7 µM).

Work on `CC(C)=CCC[C@@H](C)[C@@H]1[C@@H](O)C[C@]2(C)C3=CC[C@H]4C(C)(C)C(=O)CC[C@]4(C)[C@H]3CC[C@@]12C` [KULINONE] yielded an EC50 (P388) of 4.6 µg/mL (≈ 10.4 µM), a GI50 (MCF7) of 3.6 µg/mL (≈ 8.17 µM) and a GI50 (SF-268) of 3.6 µg/mL (≈ 8.17 µM). It also gave a GI50 (KM-20L2) of 3.6 µg/mL (≈ 8.17 µM), a GI50 (NCI-H460) of 3.6 µg/mL (≈ 8.17 µM) and a GI50 (BXPC-3) of 3.61 µg/mL (≈ 8.19 µM). For the same molecule, the GI50 (DU-145) was 3.6 µg/mL (≈ 8.17 µM).

Molecule `C[C@H](C/C=C/C(C)(C)O)[C@@H]1[C@@H](O)C[C@]2(C)C3=CC[C@H]4C(C)(C)C(=O)CC[C@]4(C)[C@H]3CC[C@@]12C` [MELIASTATIN 1] has an EC50 (P388) of 2.5 µg/mL (≈ 5.47 µM), a GI50 (MCF7) of 1.9 µg/mL (≈ 4.16 µM) and a GI50 (SF-268) of 1.9 µg/mL (≈ 4.16 µM). For the same molecule, the GI50 (KM-20L2) was 1.9 µg/mL (≈ 4.16 µM), the GI50 (NCI-H460) was 1.9 µg/mL (≈ 4.16 µM) and the GI50 (BXPC-3) was 1.9 µg/mL (≈ 4.16 µM). The GI50 (DU-145) was 1.9 µg/mL (≈ 4.16 µM).

With `COC(=O)[C@H](C/C=C/C(C)(C)O)[C@@H]1[C@@H](O)C[C@]2(C)C3=CC[C@H]4C(C)(C)C(=O)CC[C@]4(C)[C@H]3CC[C@@]12C` [MELIASTATIN 2] the EC50 (P388) was 5.6 µg/mL (≈ 11.2 µM), the GI50 (MCF7) was 6.3 µg/mL (≈ 12.6 µM) and the GI50 (SF-268) was 6.3 µg/mL (≈ 12.6 µM). It also gave a GI50 (KM-20L2) of 6.3 µg/mL (≈ 12.6 µM), a GI50 (NCI-H460) of 6.3 µg/mL (≈ 12.6 µM) and a GI50 (BXPC-3) of 6.3 µg/mL (≈ 12.6 µM). It also gave a GI50 (DU-145) of 6.3 µg/mL (≈ 12.6 µM).

Work on `COC(=O)[C@H](C/C=C/C(C)(C)OO)[C@@H]1[C@@H](O)C[C@]2(C)C3=CC[C@H]4C(C)(C)C(=O)CC[C@]4(C)[C@H]3CC[C@@]12C` [MELIASTATIN 3] yielded an EC50 (P388) of 3.1 µg/mL (≈ 6 µM).

`C=C(C)[C@@H](O)CC[C@@H](C(=O)OC)[C@@H]1[C@@H](O)C[C@]2(C)C3=CC[C@H]4C(C)(C)C(=O)CC[C@]4(C)[C@H]3CC[C@@]12C` [MELIASTATIN 4] gave an EC50 (P388) of 2 µg/mL (≈ 3.99 µM).

`C=C(C)C(O)CC[C@@H](C)[C@@H]1[C@@H](O)C[C@]2(C)C3=CC[C@H]4C(C)(C)C(=O)CC[C@]4(C)[C@H]3CC[C@@]12C` (stereo not given in full) [MELIASTATIN 5] showed an EC50 (P388) of 1.7 µg/mL (≈ 3.72 µM).

With `COC(=O)[C@H](CCC=C(C)C)[C@@H]1[C@@H](O)C[C@]2(C)C3=CC[C@H]4C(C)(C)C(=O)CC[C@]4(C)[C@H]3CC[C@@]12C` [METHYL KULONATE] the EC50 (P388) was 5.1 µg/mL (≈ 10.5 µM), the GI50 (MCF7) was 3.7 µg/mL (≈ 7.63 µM) and the GI50 (SF-268) was 3.7 µg/mL (≈ 7.63 µM). The GI50 (KM-20L2) was 3.7 µg/mL (≈ 7.63 µM), the GI50 (NCI-H460) was 3.7 µg/mL (≈ 7.63 µM) and the GI50 (BXPC-3) was 3.7 µg/mL (≈ 7.63 µM). The GI50 (DU-145) was 3.7 µg/mL (≈ 7.63 µM).
